From publication PMC5489263 (Science Advances, 2017)
Ends that are not written are not given here.

Assays:
[1] = target: C. glabrata mating receptor (Cg.Ste2) (Candida glabrata, UniProt Q6FLY8); test: cell-based
Le.Ste2 mating receptor = Le.Ste2 mating receptor (Lodderomyces elongisporus, UniProt A5E1D9); test: cell-based
Sequence of Le.Ste2 mating receptor (A5E1D9 entry or part of it): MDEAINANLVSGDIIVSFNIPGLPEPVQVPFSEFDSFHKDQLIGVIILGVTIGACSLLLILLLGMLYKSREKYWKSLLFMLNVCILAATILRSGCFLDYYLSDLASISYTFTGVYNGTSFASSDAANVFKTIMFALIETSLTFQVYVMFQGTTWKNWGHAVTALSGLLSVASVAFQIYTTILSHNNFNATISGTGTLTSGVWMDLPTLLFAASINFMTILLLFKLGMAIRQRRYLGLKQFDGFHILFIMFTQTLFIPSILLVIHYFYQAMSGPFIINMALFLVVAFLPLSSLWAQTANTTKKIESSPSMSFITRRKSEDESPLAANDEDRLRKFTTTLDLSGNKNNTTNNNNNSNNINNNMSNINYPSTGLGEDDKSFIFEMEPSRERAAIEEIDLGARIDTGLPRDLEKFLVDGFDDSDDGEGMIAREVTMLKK

Sequence of C. glabrata mating receptor (Cg.Ste2) (Q6FLY8 entry or part of it): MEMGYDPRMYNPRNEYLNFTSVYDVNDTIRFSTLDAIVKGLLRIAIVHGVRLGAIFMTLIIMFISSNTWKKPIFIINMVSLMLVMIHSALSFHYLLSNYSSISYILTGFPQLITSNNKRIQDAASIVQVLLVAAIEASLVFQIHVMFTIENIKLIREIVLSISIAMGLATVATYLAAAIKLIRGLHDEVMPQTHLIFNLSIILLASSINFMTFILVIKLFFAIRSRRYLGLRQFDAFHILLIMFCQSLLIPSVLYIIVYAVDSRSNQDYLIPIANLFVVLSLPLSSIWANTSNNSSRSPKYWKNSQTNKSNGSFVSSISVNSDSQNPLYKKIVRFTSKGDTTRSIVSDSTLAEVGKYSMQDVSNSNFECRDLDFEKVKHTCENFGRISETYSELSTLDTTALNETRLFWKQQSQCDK

With WHWVRLRKGQGLF [Cg – Candida glabrata] the EC50 [1] was 14 µM.

For “WMWTRYGRFSPV [Le – Lodderomyces elongisporus]”, the EC50 (Le.Ste2 mating receptor) was 0.054 µM.
